PubChem BioAssay (NCI)
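Grown in 96-well plates, cells were treated for 48 hours with each compound at five concentrations. Insufficient inhibition: endpoint recorded as highest concentration tested. Here, GI50 denotes the concentration required for 50% inhibition of growth. TGI marks complete inhibition of growth.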

Key:
Assay in all cases: NCI-60 cell line screen, 48 h
[1] = system: DU-145 prostate
[2] = system: EKVX NSCLC
[3] = system: HS 578T breast
[4] = system: HT29 colon
[5] = system: LOX IMVI melanoma
[6] = system: M14 melanoma
[7] = system: NCI-H226 lung
[8] = system: OVCAR-3 ovarian
[9] = system: OVCAR-8 ovarian
[10] = system: SR leukemia

Row | SMILES | TGI [1] | TGI [2] | TGI [3] | TGI [4] | TGI [5] | TGI [6] | TGI [7] | TGI [8] | TGI [9] | TGI [10] | GI50 [1] | GI50 [2] | GI50 [3] | GI50 [4] | GI50 [5] | GI50 [6] | GI50 [7] | GI50 [8] | GI50 [9] | GI50 [10]
1 | Fc1ccc(NC(=S)SCc2ccc3c(c2)OCO3)cc1F | > 100 µM | 34.1 µM | 88.7 µM | 45.3 µM | 28.6 µM | 39.1 µM | > 100 µM | > 100 µM | 35.9 µM | 43.9 µM | – | – | – | – | – | – | – | – | – | –
2 | CCOC(=O)Cn1c(C(F)(F)F)nc2nc(Cl)c(Cl)nc21 | 13.9 µM | 29.4 µM | 87.2 µM | > 100 µM | > 100 µM | > 100 µM | > 100 µM | 54.2 µM | > 100 µM | > 100 µM | – | – | – | – | – | – | – | – | – | –
3 | C=CC(=O)Nc1cc(Nc2ncc(C(=O)OC(C)C)c(-c3cn(C)c4ccccc34)n2)c(OC)cc1N(C)CCN(C)C | 17.6 µM | 13.6 µM | 21.5 µM | 5.99 µM | 3.53 µM | 3.74 µM | 29.5 µM | 12.3 µM | 25 µM | > 33.7 µM | 1.19 µM | 0.0181 µM | 6.43 µM | 2.32 µM | 1.76 µM | 1.87 µM | 7.45 µM | 2.58 µM | 4.85 µM | 3.04 µM
4 | C=C(C)C(OC)C(O)CC1(C)CC(O)CC(C)(C2CCC3OC(C4(C)CCC(Br)C(C)(C)O4)CCC3(C)O2)O1 (centres undefined) | 32 µM | 34.1 µM | 52.9 µM | > 78.9 µM | > 58.9 µM | 32.7 µM | 41.2 µM | 58.5 µM | 50.2 µM | > 100 µM | 17.3 µM | 14.1 µM | 23.9 µM | 30.3 µM | 26.1 µM | 17.4 µM | 18.8 µM | 22.8 µM | 21.1 µM | 34.9 µM
5 | CC(C)=CCC\C(C)=C/C=C/C(C)=C\C=C\C(C)=C/C=C/C=C(C)\C=C\C=C(C)/C=C/C=C(/C)CCC=C(C)C | > 100 µM | > 100 µM | > 100 µM | > 100 µM | > 100 µM | > 100 µM | > 100 µM | > 100 µM | > 100 µM | > 100 µM | – | – | – | – | – | – | – | – | – | –
6 | O=C(Nc1ccc(-n2ccc3c(NC(=O)c4ccccc4)nccc32)cc1)c1ccc(Cl)c(C(F)(F)F)c1 | 10.7 µM | > 50 µM | 20 µM | 6.31 µM | 3.29 µM | 10.7 µM | > 50 µM | 10 µM | 15.9 µM | > 12.7 µM | 2.12 µM | 9.59 µM | 4.88 µM | 0.183 µM | 0.112 µM | 1.92 µM | 6.17 µM | 1.35 µM | 0.528 µM | 0.0545 µM
7 | Cc1ccc2c(C)c3c(ccc4ccccc43)c[n+]2c1 | 40.6 µM | > 100 µM | 22.3 µM | > 100 µM | 53.6 µM | 31.7 µM | > 100 µM | 16.8 µM | 25.4 µM | 22.9 µM | 14.7 µM | 0.775 µM | 4.37 µM | 33.5 µM | 17.3 µM | 14.1 µM | 21.1 µM | 2.64 µM | 6.35 µM | 3.75 µM
8 | NS(=O)(=O)OC[C@@H]1C[C@@H](n2ccc3c(NC4CCc5ccccc54)ncnc32)C[C@@H]1O (some centres undefined) | > 100 µM | > 100 µM | 61.3 µM | 29.2 µM | 0.436 µM | > 100 µM | – | 33.7 µM | 36.7 µM | 29.5 µM | 0.384 µM | 21.4 µM | 16.8 µM | 0.566 µM | 0.0673 µM | 0.712 µM | 0.362 µM | 2.93 µM | 0.823 µM | 0.0827 µM
9 | CCN1/C(=C\c2cc[n+](CC)c3ccccc23)C=Cc2ccccc21 | 13.4 µM | 12.1 µM | 15.8 µM | 10.8 µM | 1.52 µM | 2.47 µM | 13.1 µM | 1.08 µM | 13 µM | 4.86 µM | 0.265 µM | 0.0764 µM | 0.33 µM | 0.202 µM | 0.179 µM | 0.302 µM | 0.301 µM | 0.118 µM | 0.23 µM | 0.152 µM
10 | COc1cc2c(c3oc4c(O)cccc4c(=O)c13)CC(C(C)(O)CO)O2 (centres undefined) | > 100 µM | > 100 µM | > 100 µM | > 100 µM | > 100 µM | > 100 µM | > 100 µM | > 100 µM | > 100 µM | > 100 µM | – | – | – | – | – | – | – | – | – | –
